The target in experiment [1] is T1, CYP11B1 (Homo sapiens, UniProt P15538).
T1 construct: Thus, the NCl-H295R cells have Cyp11 B1 (steroid 11 p-hydroxylase); host or cells: NCI-H295R
T1 sequence (P15538 25-503): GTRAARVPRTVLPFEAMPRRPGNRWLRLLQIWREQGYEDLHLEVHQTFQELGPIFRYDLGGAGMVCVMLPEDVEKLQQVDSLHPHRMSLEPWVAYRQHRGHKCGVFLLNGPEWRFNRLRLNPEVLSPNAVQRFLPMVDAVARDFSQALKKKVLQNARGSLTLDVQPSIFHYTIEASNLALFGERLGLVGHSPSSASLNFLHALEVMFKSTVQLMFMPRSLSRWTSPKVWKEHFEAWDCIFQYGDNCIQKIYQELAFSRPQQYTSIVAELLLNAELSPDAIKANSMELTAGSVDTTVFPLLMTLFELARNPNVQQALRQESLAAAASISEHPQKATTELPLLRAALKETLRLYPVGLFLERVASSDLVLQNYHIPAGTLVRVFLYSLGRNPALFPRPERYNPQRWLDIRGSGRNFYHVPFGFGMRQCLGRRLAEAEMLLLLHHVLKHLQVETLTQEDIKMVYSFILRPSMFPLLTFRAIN
Nature of the experiment: In vitro CYP11B1 inhibition: steroid release from NCI-H295R cells. Type of experiment: cell-based. The conditions noted are these: 10 nM compound, read-out: 11B1 % Inhibition @ 10 nM. From the text: The in vitro inhibitory activities for CYP11B1 can be determined by the following assay.
The cell line NCI-H295R was originally isolated from an adrenocortical carcinoma and has been characterized in the literature through the stimulable secretion of steroid hormones and the presence of the enymes essential for steroidogenesis. Thus, the NCl-H295R cells have Cyp11 B1 (steroid 11 p-hydroxylase). The cells show the physiological property of zonally undifferentiated human foetal adrenocortical cells which, however, have the capacity to produce the steroid hormones which are formed in the three, phenotypically distinguishable zones in the adult adrenal cortex. […]
The excretion of aldosterone, cortisol, corticosterone and estradiol/estrone into the culture medium can be detected and quantified by commercially available, specific monoclonal antibodies in radioimmunoassays in accordance with the manufacturer's instructions.
Inhibition of the release of certain steroids can be used as a measure of the respective enzyme inhibition by the added test compounds. The dose-dependent inhibition of enzymic activity by a compound is calculated by means of an inhibition plot which is characterized by an IC50. […]

The target in experiment [2] is T2, aldosterone synthase (Homo sapiens, UniProt P19099).
T2 construct: host or cells: NCI-H295R
T2 sequence (P19099 25-503): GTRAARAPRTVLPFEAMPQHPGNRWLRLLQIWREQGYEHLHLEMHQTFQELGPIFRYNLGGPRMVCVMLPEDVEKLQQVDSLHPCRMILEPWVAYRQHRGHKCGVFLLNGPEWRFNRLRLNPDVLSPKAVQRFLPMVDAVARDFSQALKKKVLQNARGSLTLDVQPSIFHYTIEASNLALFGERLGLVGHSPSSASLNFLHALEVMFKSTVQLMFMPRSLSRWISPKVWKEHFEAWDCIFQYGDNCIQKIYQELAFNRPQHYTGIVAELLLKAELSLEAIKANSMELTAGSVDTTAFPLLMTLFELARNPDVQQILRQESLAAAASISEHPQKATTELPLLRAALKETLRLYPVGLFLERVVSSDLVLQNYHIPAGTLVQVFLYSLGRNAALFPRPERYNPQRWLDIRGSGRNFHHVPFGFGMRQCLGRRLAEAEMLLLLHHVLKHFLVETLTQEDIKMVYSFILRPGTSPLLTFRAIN
Description: In vitro aldosterone synthase inhibition: aldosterone production in Ang II-stimulated NCI-H295R cells. Format: cell-based. The note with it: read-out: AS IC50. The source says: In particular, the aldosterone synthase inhibitory activities in vitro can be determined by the following assay.
Human adrenocortical carcinoma NCI-H295R cell line is obtained from American Type Culture Collection (Manassas, Va.). Insulin/transferrin/selenium (ITS)-A supplement (100×), DMEM/F-12, antibiotic/antimycotic (100×), and fetal calf serum (FCS) are purchased from Gibco (Grand Island, N.Y.). Anti-mouse PVT scintillation proximity assay (SPA) beads and NBS 96-well plates are obtained from Amersham (Piscataway, N.J.) and Corning (Acton, Mass.), respectively. Solid black 96-well flat bottom plates were purchased from Costar (Corning; NY). Aldosterone and angiotensin (Ang II) are purchased from Sigma (St. Louis, Mo.). D[1,2,6,7-^3H(N)]aldosterone was acquired from PerkinElmer (Boston, Mass.). Nu-serum was a product of BD Biosciences (Franklin Lakes, N.J.). The NADPH regenerating system, dibenzylfluorescein (DBF), and human aromatase Supersomes® are obtained from Gentest (Woburn, Mass.). […]
Measurement of aldosterone activity can also be performed using a 96-well plate format. […] The amount of aldosterone in each sample is calculated by comparing with a standard curve generated using known quantities of the hormone.

The values below come from patent US20100240641A1, “Aldosterone Synthase and/or 11B-hydroxylase Inhibitors” (priority 2006, published 2010).

For orientation: inhibition means the drop in the measured response relative to a control, in per cent. For the molecule `CCC1(c2ccc(C)cc2OC)C(=O)N(Cc2ccc(F)cc2)Cc2cncn21` (stereo not drawn) [Compound 8, 5-(2-Methoxy-4-methyl-phenyl)-5-ethyl-7-(4-fluoro-benzyl)-7,8-dihydro-imidazo[1,5-a]pyrazin-6-one], the inhibition at 0.01 µM in experiment [1] is 98%.

Take `CCC1(c2ccc(C#N)cc2F)C(=O)N(Cc2ccc(F)cc2)Cc2cncn21` (stereo not drawn) [Compound 7, 4-[5-Ethyl-7-(4-fluoro-benzyl)-6-oxo-5,6,7,8-tetrahydro-imidazo[1,5-a]pyrazin-5-yl]-3-fluoro-benzonitrile]: the inhibition at 0.01 µM in experiment [1] turned out to be 100%.

The term IC50 denotes the concentration that gives 50% inhibition. With `CCC1(c2ccc(C#N)cc2OC)C(=O)N(Cc2ccc(Cl)cc2)Cc2cncn21` (stereo not drawn) [Compound 1, 4-[7-(4-Chloro-benzyl)-5-ethyl-6-oxo-5,6,7,8-tetrahydro-imidazo[1,5-a]pyrazin-5-yl]-3-methoxy-benzonitrile], the IC50 in experiment [2] turned out to be 12 nM.
